Laboratory results reported in patent US20060128737A1, “Androgen receptor agonists” (KAKEN PHARMACEUTICAL CO., LTD., priority 2003, published 2006).

Tests used:
[1] = target: T1, rat androgen receptors (rat AR) (Rattus norvegicus, UniProt P15207); assay: Test for competitive binding to rat androgen receptors (rat AR); settings: RBA=100×(IC50 of hydroxyflutamide)/(IC50 of compound); 3H-testosterone, rat prostate AR fraction
T1 construct: from tissue; host or cells: prostate of orchiectomized 11-week-old male SD rats (cytosolic supernatant of homogenate)
T1 sequence (P15207 1-902): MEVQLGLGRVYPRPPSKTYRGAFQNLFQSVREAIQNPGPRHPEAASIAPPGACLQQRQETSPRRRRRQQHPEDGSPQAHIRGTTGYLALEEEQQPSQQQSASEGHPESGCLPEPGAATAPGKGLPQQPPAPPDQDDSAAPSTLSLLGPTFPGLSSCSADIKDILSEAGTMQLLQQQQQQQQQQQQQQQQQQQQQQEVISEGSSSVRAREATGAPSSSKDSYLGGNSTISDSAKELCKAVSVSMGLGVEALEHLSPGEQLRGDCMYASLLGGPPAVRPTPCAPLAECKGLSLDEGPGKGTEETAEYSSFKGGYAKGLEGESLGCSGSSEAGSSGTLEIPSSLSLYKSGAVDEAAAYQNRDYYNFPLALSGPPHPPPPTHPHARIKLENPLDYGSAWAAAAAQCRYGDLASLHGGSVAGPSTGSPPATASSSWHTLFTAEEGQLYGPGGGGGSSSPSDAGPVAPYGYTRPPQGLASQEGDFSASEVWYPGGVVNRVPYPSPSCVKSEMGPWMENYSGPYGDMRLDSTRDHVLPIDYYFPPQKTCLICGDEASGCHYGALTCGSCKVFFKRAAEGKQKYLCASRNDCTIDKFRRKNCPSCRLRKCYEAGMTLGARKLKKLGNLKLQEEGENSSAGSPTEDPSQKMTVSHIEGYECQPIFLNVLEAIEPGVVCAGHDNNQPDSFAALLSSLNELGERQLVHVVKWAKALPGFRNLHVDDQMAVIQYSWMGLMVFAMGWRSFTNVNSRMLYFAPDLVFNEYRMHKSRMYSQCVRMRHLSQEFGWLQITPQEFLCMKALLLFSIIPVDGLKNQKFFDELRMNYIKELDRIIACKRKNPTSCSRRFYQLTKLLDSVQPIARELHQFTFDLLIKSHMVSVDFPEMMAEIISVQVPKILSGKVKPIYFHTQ
Experimental: Preparation of a rat AR fraction: Prostates were harvested into ice-cooled ET buffer (10 mM Tris, 1 mM EDTA, 5 mM DTT, 10 mM sodium molybdate, pH 7.4) 3 days after orchiectomy in 11-week-old male SD rats. The prostate was finely cut, and ET buffer was added, whereafter the mixture was homogenized using a homogenizer. The homogenate was ultracentrifuged (100,000×g, 60 min, 4° C.), and the supernatant was used as a rat AR fraction (hereinafter referred to as ARF).
Binding test: ^3H-testosterone (hereinafter referred to as ^3H-T) was diluted with ET buffer. Dihydrotestosterone (DHT) was prepared so as to have a final concentration of 1 μM which was 400 times the maximum concentration of ^3H-T (2.5 nM). The ^3H-T solution was added to a 1.5 ml tube containing DHT, no DHT, or various concentrations of a test compound. Further, 200 μg ARF was added to adjust the final volume to 100 μl. The mixture was incubated for 2 hours at 4° C., and then 300 μl of a 0.05% dextran T70-1.0% activated carbon solution was added. The mixture was further incubated for 15 minutes in ice to remove the free ^3H-T by adsorption. After centrifugation (4° C., 2,500 rpm, 5 min), 275 μl of the supernatant was harvested into a liquid scintillation vial, and 2 ml of Clear Sol was added. The mixture was stirred, allowed to stand, and measured for ^3H radioactivity with a liquid scintillation counter.
Calculation of the relative binding inhibition rate: The binding inhibition rate (%) of the compound according to the present invention was calculated from the following equation, and the 50% inhibition concentration (IC50) was calculated by the probit analysis of the concentration-binding inhibition curve.
The relative binding inhibition rate (RBA: Relative Binding Affinity) was determined from the following equation (Endocrinology 138, 863-870, 1997): RBA=100×(IC50 of hydroxyflutamide)/(IC50 of a compound of the present invention)

[2] = test system: orchiectomized (ORX) rats; assay: Test Example 3: effect on prostate, levator ani muscle and femoral bone mineral density in ORX rats (subcutaneous); format: in vivo, rat
Experimental: (§1) Testes were removed from 12-week-old male SD rats. Starting on the next day, the compound of Example 12 or 65 (30 mg/kg) or DHT (0.1, 1, 10 mg/kg) was subcutaneously administered once daily for four consecutive weeks on a 5-day-a-week basis. The Example compounds and DHT were dissolved in dimethyl sulfoxide and diluted 10-fold with olive oil to prepare solutions with various concentrations for use in the test. In an ORX control group, dimethyl sulfoxide as diluted 10-fold with olive oil was used for the test. Rats which had been falsely operated on without orchiectomy were used as a sham control group. On the next day after final administration, the wet weights of the ventral prostate and levator ani muscle were measured and the right femoral bone mineral density was measured by DEXA (double energy X-ray absorption) to evaluate the in vivo efficacy of the compounds of Example 12 and 65.

[3] = test system: orchiectomized (ORX) rats; assay: Test Example 4: effect on prostate, levator ani muscle and femoral bone mineral density in ORX rats (subcutaneous); format: in vivo, rat; settings: for Prostate weight as % of the level of the sham control group: 30 mg/kg sc; for Femoral bone mineral density / Weight of levator ani muscle / Weight of prostate: 30 mg/kg sc once daily, 5 days a week, 4 weeks
Experimental: as §1, with “Example 113” for “Example 12”, “or 114” for “or 65”, “DHT (10” for “DHT (0.1, 1, 10”, “test. […]” for “test. Rats which had been falsely operated on without orchiectomy were used as a sham control group.”, “and 114.” for “and 65.”

[4] = 30 mg/kg sc once daily, 5 days a week, 4 weeks

Compound	RBA (Relative Binding Affinity) [1]	Prostate weight as % of the level of the sham control group ([2]; 30 mg/kg sc)	Femoral bone mineral density [2, 4] [mg/cm^2]	Weight of levator ani muscle [2, 4] [mg/100 g body weight]	Weight of prostate [2, 4] [mg/100 g body weight]	Prostate weight as % of the level of the sham control group [3]	Femoral bone mineral density [3] [mg/cm^2]	Weight of levator ani muscle [3] [mg/100 g body weight]	Weight of prostate [3] [mg/100 g body weight]
CC(C)(CNC(=O)c1ccc(Br)cc1)[C@H]1Nc2ccc([N+](=O)[O-])cc2C2OCC[C@H]21 (relative stereo) [Example 12, (3aS*,4S*,9bS*)-4-bromo-N-[2-methyl-2-(8-nitro-2,3,3a,4,5,9b-hexahydro-furo[3,2-c]quinolin-4-yl)propyl]benzamide]	94	about 35%	122 ± 5	54 ± 5	36 ± 6				
CC(C)(CNC(=O)c1ccc(OC(F)(F)F)cc1)[C@H]1Nc2ccc(C#N)cc2[C@H]2OCC[C@H]21 (relative stereo) [Example 113, (3aS*,4S*,9bS*)-N-[2-(8-cyano-2,3,3a,4,5,9b-hexahydro-furo[3,2-c]quinolin-4-yl)-2-methyl-propyl]-4-trifluoromethoxybenzamide]	58					about 40%	148 ± 3	65 ± 6	59 ± 16
CCOc1ccc(C(=O)NCC(C)(C)[C@H]2Nc3ccc(C#N)cc3[C@H]3OCC[C@H]32)cc1 (relative stereo) [Example 114, (3aS*,4S*,9bS*)-N-[2-(8-cyano-2,3,3a,4,5,9b-hexahydro-furo[3,2-c]quinolin-4-yl)-2-methyl-propyl]-4-ethoxybenzamide]	55					about 60%	150 ± 8	66 ± 11	86 ± 17
CCOc1ccc(C(=O)NCC(C)(C)[C@H]2Nc3ccc([N+](=O)[O-])cc3C3OCC[C@H]32)cc1 (some centres unmarked) [Example 20]	161								
CC(C)(O)C(=O)Nc1ccc([N+](=O)[O-])c(C(F)(F)F)c1 [Hydroxyflutamide, hydroxyflutamide, reference compound]	100								
